# Tests used:
# Format in all cases: toxicity, cell-based
# [1] = system: HEK-293T; test: Incucyte cell viability with HEK293T; conditions: human, 10 µM, compound concentration 10 uM
# [2] = system: U2OS; test: Incucyte cell viability with U2OS; conditions: human, 10 µM, compound concentration 10 uM
# [3] = system: Fibroblast; test: Incucyte cell viability with human fibroblast; conditions: 10 µM, compound concentration 10 uM
# [4] = 0 h, replicate number 1, timepoint 0 hours
# [5] = 0 h, replicate number 2, timepoint 0 hours
# [6] = 6 h, replicate number 2, timepoint 6 hours
# [7] = 12 h, replicate number 2, timepoint 12 hours
# [8] = 18 h, replicate number 2, timepoint 18 hours
# [9] = 24 h, replicate number 1, timepoint 24 hours
# [10] = 24 h, replicate number 2, timepoint 24 hours
# [11] = 6 h, replicate number 1, timepoint 6 hours
# [12] = 12 h, replicate number 1, timepoint 12 hours
# [13] = 18 h, replicate number 1, timepoint 18 hours
# Note: filed as whole numbers so only -1 and 0 and 1 occur.
Compound,"Growth Rate [1, 4]","Growth Rate [1, 5]","Growth Rate [1, 9]","Growth Rate [1, 10]","Growth Rate [2, 4]","Growth Rate [2, 11]","Growth Rate [2, 6]","Growth Rate [2, 12]","Growth Rate [2, 13]","Growth Rate [2, 8]","Growth Rate [2, 9]","Growth Rate [3, 5]","Growth Rate [3, 11]","Growth Rate [3, 12]","Growth Rate [3, 13]","Growth Rate [3, 8]","Growth Rate [3, 9]","Growth Rate [2, 7]","Growth Rate [3, 7]","Growth Rate [1, 13]",further results
CC(C)CC(=O)N1CCc2nc(-c3ccc(Br)cc3)nc(N(C)Cc3ccccc3)c2C1 [THPP-1-NC],0,1,1,0,0,1,0,0,0,1,0,0,1,0,1,0,1,–,–,–,"Growth Rate [1, 6]: 0; Growth Rate [1, 7]: 0; Growth Rate [1, 8]: 1; Growth Rate [3, 6]: 0; Growth Rate [3, 10]: 0"
Cc1cnc(-c2cc(Cl)ccc2F)cc1-n1c(=O)n(CC(N)=O)c2cnccc21 [TP-008],0,1,–,1,–,1,–,0,0,1,1,0,1,0,0,1,1,1,1,–,"Growth Rate [1, 6]: 1; Growth Rate [1, 7]: 1; Growth Rate [2, 5]: 0; Growth Rate [3, 10]: 0"
N#Cc1ccc(Nc2ccc3[nH]c(=O)[nH]c3c2)c(Cl)c1 [TP-021n],0,1,–,1,1,0,–,0,0,1,0,1,0,0,0,1,0,–,–,–,"Growth Rate [2, 5]: 0"
CN1C(=O)[C@@H](N2CCc3c(nn(Cc4ccccc4)c3Br)C2=O)COc2ccccc21 [TP-030-2],0,1,1,0,0,0,1,0,0,1,0,–,0,0,0,–,0,1,–,1,"Growth Rate [1, 6]: 0; Growth Rate [1, 7]: 0; Growth Rate [2, 10]: 1"
CC(C)Oc1ccc(-c2nn([C@@H](C)c3oc4ccc(F)cc4c(=O)c3-c3cccc(F)c3)c3ncnc(N)c23)cc1F [UMBRALISIB],1,0,0,–,0,0,1,0,0,1,0,–,1,1,1,–,1,1,0,0,"Growth Rate [1, 11]: 0; Growth Rate [1, 12]: 0; Growth Rate [2, 10]: 1; Growth Rate [3, 6]: 0"
Nc1nc(NCc2ccccc2)nc(-c2cccc(CO)c2)n1 [ZINC32547799],0,–,0,–,0,–,0,1,1,–,1,–,0,0,0,–,0,–,1,0,"Growth Rate [1, 11]: 0; Growth Rate [1, 12]: 0; Growth Rate [3, 4]: 0; Growth Rate [3, 10]: 1"
Nc1nc(NCCc2ccc(O)cc2)nc2nc(-c3ccco3)nn12 [ZM-241385],1,0,0,–,–,0,–,0,0,1,0,1,–,1,1,0,1,1,0,0,"Growth Rate [1, 11]: 0; Growth Rate [1, 12]: 0; Growth Rate [2, 5]: 0; Growth Rate [2, 10]: 1; Growth Rate [3, 4]: 0; Growth Rate [3, 6]: 0"
